Reference: patent publication US6787530B1, “Use of pregnane-diones as analgesic agents” (priority 1996, dated 2004)

Columns and labels:
Wistar rat = assay: Electrical current threshold for pain (ECT) in the tail after intragastric dosing, pilot experiment; format: in vivo; details: 150 mg suspended in 1% Cremophor EL, 99% saline, intragastrically; one rat approx. 200 g
Description: We performed a pilot experiment on one drug naive nale Wistar rat that weighed approximately 200 g. We measured the nociceptive (pain) threshold in the tail using electrical current as the noxious stimulus. We measured the electrical current threshold for pain (ECT) in the tail every five minutes until the readings stabilised. We then gave 150 mg alphadolone acetate suspended in 1% Cremophor EL, 99% saline, intragastrically.

[1] = system: patients scheduled for knee reconstruction surgery; assay: Phase 1 study of oral alphadolone after knee reconstruction surgery: pain scores, PCA morphine consumption, CPM; format: in vivo, human; details: for morphine consumption from the PCA machine vs total range of placebo patients: single patients at 100, 250 and 500 mg orally
Source text: A pilot clinical study entitled “Investigation of the analgesic properties of alphadolone acetate administered orally to man—a dose escalation and efficacy study” was submitted to Monash Medical Centre Human Research and Ethics Committee A. It was approved and registered with the Therapeutics Goods Administration it Canberra under the Clinical Trials Notification (CTN) scheme. This was a small pilot study of phase 1 type design but incorporating some randomisation and placebo control because of the nature of the measurements, i.e. subjective pain measurements. The study was performed prospectively, one in three patients randomised to receive placebo formulation (lactose) and double-blind i.e. neither the patient nor the observer (a research anaesthetic registrar) were aware of the nature of the treatment, placebo or alphadolone.
The study consisted of two phases. The first phase was a dose escalation study. At any time during this phase as well as the second phase, if the patient was randomised to receive placebo then a capsule containing lactose was administered orally at the time of medication. If the patient was randomised to receive alphadolone then the first patient so randomised received 25 mg alphadolone acetate orally. The patient was monitored for efficacy of the medication and side effects. If there were no unacceptable side effects such as respiratory depression or severe sedation or disorientation then the next patient randomised to receive the active treatment received a higher dose. The dose escalation planned was in the order, 25, 50, 100, 250, 500 and 1000 mg. The original plan was to continue dose escalation until unacceptable side effects occurred and then to reduce the dose to go onto the next, second, phase of the study, a double-blind comparison of the dose just below the high dose that produced unacceptable side effects compared with placebo. However, the view of the Ethics Committee was that this was more appropriate to a drug company sponsored trial and they ordered that the trial should switch from the dose escalation phase to the comparison phase when there was clear evidence of efficacy.
Thus in the second phase of the study, a double-blind comparison of 250 mg of alphadolone with placebo was carried out. Patient 8, 10, 13 and 14 received 250 mg of alphadolone and patient 9, 11 and 12 received placebo.
14 patients scheduled for knee reconstruction surgery were recruited to this study. On the day prior to surgery for morning surgical patients or on the morning prior to afternoon surgery in those patients scheduled for afternoon lists, written informed consent was obtained from the patients after inclusion and exclusion criteria were met. The patient had to be ASA class 1 or 2, between 18 and 70 years, not using regular analgesics apart from paracetamol and non-steroid anti-inflammatory drugs. These were withheld on the day of surgery. The patient also had to have no renal, hepatic or respiratory disease other than mild asthma and could not be pregnant. No epidural/spinal/knee local anaesthetic or opioid injections were allowed. All patients had to receive post-operative morphine from a patient controlled analgesia device. After obtaining informed consent the patients were then given an opportunity to familiarise themselves with the PCA machine and also practice completing the visual analogue and verbal rating scales used for post-operative assessments.
No premedication was given. The patients were taken to the operating theatre and subjected to a standardised anaesthetic regime that consisted of a propofol induction followed by a propofol infusion and the muscle relaxant of the anaesthetist's preference The trachea was intubated and lungs ventilated with a mixture of nitrous oxide and oxygen. Morphine 1-2 mg intravenously was given as indicated by normal signs of depth of anaesthesia. The amount of morphine used in the operating theatre was recorded in the case record form. […]

[2] = system: spinal cord GABAA receptors
Description: A study was performed on five rats. Alphadolone ([…]) was suspended in normal saline. The five rats were randomised to receive on two different occasions on two different days either […]. This was a cross-over study such that on the following occasion if a rat had received vehicle on the first occasion then it received alphadolone on the second occasion and vice versa. This dosing was randomised and the observer making measurements of pain thresholds was blinded to the nature of the drug given to these rats. In each experiment, the electrical current threshold in the neck and the tail were measured every five minutes until three stable readings were obtained. Then either vehicle or alphadolone 750 mg per kg suspended in saline was instilled into the stomach via an oesophageal needle. Five minutes later and every five minutes thereafter, electrical current thresholds for nociception were measured in the skin of the tail and neck At 60 minutes 10 pmol of bicuculline in 5 μl 6% dextrose was injected intrathecally down a Portex catheter that had been implanted previously in the lumbar sub arachnoid space to lie adjacent to the most caudal segments of spinal cord responsible for tail innervation.

[3] = Plasma alphadolone and glucuronide metabolite levels after oral capsule; format: in vivo, human
Description: The patients who had alphadolone administered orally to them, had blood samples taken at time 0, the time of drug administration, and at ½ hour intervals for 6 hours This blood was sent off to a laboratory at the Royal Melbourne Institute of Technology for analysis of blood alphadolone levels. It can be seen from Example 5 that no measurable alphadolone was found in the blood of these patients who were reporting useful analgesia with decreased morphine requirements. […] These experiments mean that very little or no free alphadolone was present in these patient's blood, but large quantities of alphadolone was present as the glucuronide metabolite. This evidence supports further our claim that the analgesic effects of alphadolone and alphadolone acetate given by oral and intraperitoneal routes involves activity of metabolites in general and the glucuronide in particular.
All patients had 10 ml of blood taken from a vein immediately prior to the capsule administration and also 30 minutes, one hour, 1½ hours, 2 hours, 3 hours, 4 hours and 6 hours after capsule administration. The blood was placed in heparinised tubes, centrifuged and the plasma decanted for later analysis of blood alphadolone levels by the Key Centre for Applied and Nutritional Toxicology, Royal Melbourne Institute of Technology.
No alphadolone was detected in the plasma. The lower limit of detection was 50 ng/ml. […] In 5 of these patients the metabolite was detected in the first sample taken after the alphadolone capsule had been given.

[4] = up to six hours after capsule, 100, 250 and 500 mg orally, n = 7
[5] = plasma treated with glucuronidase, 250 mg, 5 patients, 500 mg, one patient

## CC(=O)OCC(=O)[C@H]1CC[C@H]2[C@@H]3CC[C@H]4C[C@H](O)CC[C@]4(C)[C@H]3C(=O)C[C@]12C [alphadolone, 21-acetoxy-3alpha-hydroxy-5alpha-pregnane-11,20-dione]
Wistar rat
  electrical current threshold for pain (ECT) in the tail: significant rise in tail pain thresholds
[1]; 250 mg and 500 mg given orally
  morphine requirement and pain relief after major knee surgery: reduced the morphine requirement for pain relief after major knee surgery and at the same time improved the pain relief
[1]; (3.62÷12.42)×100% vs placebo
  morphine sparing over six hours: 29.1%
[1]; PCA morphine, alphadolone treated patients (placebo 12.42 mg)
  mean morphine usage during the six-hour period after capsule ingestion: 8.8 mg
[1]; VAS after capsule as ratio of pre-capsule readings, six hours, 100, 250 and 500 mg orally
  Standardised VAS scores; Mann-Whitney U-Test, Mean rank: 82.85
[1]; between one and six hours after capsule
  morphine consumption from the PCA machine vs total range of placebo patients: fell outside the total range of morphine used by placebo treated patients
[1]; n = 7 vs placebo n = 5, p=0.006
  verbal rating pain scores compared with placebo (chi squared test): significantly lower pain scores
[1]; n = 7 vs placebo n = 5, p=0.0117
  standardised visual analogue scores compared with placebo (Mann-Whitney U-test): significantly lower standadised visual analogue scores
[1]; p=0.0153, p=0.00651 with 3 and 4 mg cells combined
  morphine usage compared with placebo (chi-square): use less than placebo treated patients
[1]; six hours after capsule, n = 7
  Morphine doses in half-hour periods: 0 mg, frequency: 39
  Morphine doses in half-hour periods: 1 mg, frequency: 29
  Morphine doses in half-hour periods: 2 mg, frequency: 15
  Morphine doses in half-hour periods: 3 mg, frequency: 1
  Morphine doses in half-hour periods: 4 mg, frequency: 0
[1]; six hours after capsule, single patients at 25, 50 and 100 mg orally
  morphine usage with increasing alphadolone dose: progressive reduction in morphine usage
[1]; six hours after capsule
  morphine consumption from the PCA machine vs total range of placebo patients: fell outside the total range of the morphine consumption of placebo treated patients
[1]; [4]
  Verbal rating scales for pain: Mild, frequency: 53
  Verbal rating scales for pain: Moderate, frequency: 20
  Verbal rating scales for pain: No pain, frequency: 6
  Verbal rating scales for pain: Severe, frequency: 4
[2]; 750 mg per kg intragastric, suspended in saline, five rats, cross-over vs vehicle
  electrical current threshold in the skin of the tail and the neck: sharp rise in the electrical current threshold
[2]; 750 mg per kg intragastric, five rats
  sedation (observation of the animals): no animals seemed to be sedated in any form whatsoever
[2]; given intragastrically to rats
  antinociception (pain relief): powerful antinociception
[2]; range of doses intragastrically to rats
  sedation: no sedation, even at very large doses
[3]; oral capsule, samples up to 6 hours, without glucuronidase treatment
  alphadolone in plasma (lower limit of detection): < 50 ng/mL
[3]; [5]
  alphadolone metabolite (glucuronide) in plasma: microgram/ml concentrations
  alphadolone metabolite in plasma at the 6 hour sampling time point: still present, although decaying
